Our source for the Final emergence, QR and T50 values is patent US20080318792A1, “Extension of pollination period” (priority 2007, published 2008).

SMILES strings stand for the structures. Counter-ions that a name gives are not always drawn.

In this assay the test system is Hughes 1883 hybrid corn seed. The assay is described as follows: Soil germination/emergence of corn seed treated with different forms of ABA in slurry. The conditions noted are these: 25 g/cwt as free acid. The class given is in vivo. As for the experimental part:
Three forms of ABA were evaluated in this experiment 1) free acid, 2) ammonium salt, and 3) sodium salt. The cation is referred to as the “counter-ion” below. […] The treatments were made up in 3 ml samples of experimental aqueous seed treatment slurry. All of the seed treatment slurry samples contained CF-Clear film-forming agent and Colorcoat Red (Becker Underwood), each at 1 oz/cwt, and 0.167 oz/cwt Maxim XL fungicide (Syngenta). The slurry application volume was 20 oz/cwt (cwt=100 lbs of seed).
One hundred gram samples of Hughes 1883 hybrid corn seed were treated with the experimental slurries using a Hege 11 seed treater with a six-inch bowl.
The seed was planted in plastic boxes containing 1 kg of typical agricultural silt loam. Fifty seeds were planted 3 cm deep in each plastic box, and the soil in the box was adjusted to 21% soil moisture (wet-weight basis). Two replications of the experiment were incubated under constant light in a 25° C. chamber and two replications incubated under constant light in an 18° C. chamber. The boxes were watered up to the correct weight daily, and checked for emergence. Daily counts of seedlings were continued until emergence ceased. The final count of emerged seedlings was expressed as a percentage of the 50 seeds planted (GERM).
The daily counts were converted to proportions of the final germination of the box, and a Gompertz curve was fitted to the data from each box using SAS Proc NLIN. From the parameters of the model, median germination time (T50) and quartile range (QR) were estimated for each box. Analysis of variance was performed and means calculated for each of the three responses (GERM, T50, QR).

In the case of `CC1=CC(=O)CC(C)(C)[C@@]1(O)/C=C/C(C)=C\C(=O)O` [ABA ammonium salt], for the setting “soil 18° C.”, the Final emergence was determined as 91%, the QR is recorded as 3.52 days and the T50 is listed as 11.2 days. For the setting “soil 25° C.”, the Final emergence was determined as 91%, the QR is 1.34 days and the T50 amounted to 7.4 days.

Under “soil 18° C.”, `CC1=CC(=O)CC(C)(C)[C@@]1(O)/C=C/C(C)=C\C(=O)[O-].[Na+]` [ABA sodium salt] returned a Final emergence of 92%, a QR of 3.36 days and a T50 of 10.9 days. Moreover, under “soil 25° C.”, the Final emergence stood at 92%, the QR is 1.31 days and the T50 is 7.1 days.
